Patent US20260355166A1, “2-SUBSTITUTED PIPERIDINE DERIVATIVES, PREPARATION METHODS AND MEDICINAL USES THEREOF” (JIANGSU HANSOH PHARMACEUTICAL GROUP CO., LTD., priority 2022, published 2026)

Tests used:
[1] = system: rabbit reticulocyte hemolysis; assay: Inhibition of AP Dependent Hemolysis (rabbit cells in human serum); type: cell-based, human serum; rabbit erythrocytes; conditions: Oryctolagus cuniculus, GVB buffer with MgCl2 and EGTA, 37 °C, OD405
Procedure: To quantify the inhibitory effects of compounds on the hemolytic activity of the alternative complement pathway, the AP hemolytic assay was employed. Test concentration of the compounds started at 100 μM and were diluted 3-fold in DMSO to produce 8-11 concentration points, with each concentration tested in technical triplicates. Human serum was added to rabbit reticulocytes in a solution of GVB buffer with MgCl2 and EGTA. After a period of incubation at 37 °C, spontaneous lysis of rabbit erythrocytes due to serum AP complement activity was quantified using OD405 absorbance, measured using the i3x plate reader.

[2] = Pharmacokinetic Studies in Rats; type: in vivo, brown Norway rats; conditions: plasma, rat
Procedure: Three-month-old brown Norway rats were administered the Example compound intravenously (0.5 mg/kg dose, formulation: 10% 1,2-Propanediol+25% (20% solutol HS 15 in water)+65% phosphate buffered saline at 0.1 mg/mL) and via oral gavage at 2 mg/kg dose as a clear solution (0.5% MC+0.5% Tween 80 in water at 1 mg/mL). Plasma was collected from rats per time point at 0.25, 0.5, 1, 6, and 24 h after administration. The concentrations of the test article were measured in plasma by HPLC-MS/MS, two individual plasma samples at each time point. Chromatographic separation was carried out on Waters BEH C18 Column (2.1×50 mm, 1.7 μm) column (MAC-MOD Analytical, Chadds Ford, PA), using a gradient elution method with water and acetonitrile, both containing 0.025% formic acid-1 mM NH4OAc. Mass spectrometric measurements in positive electrospray ionization were directed at quantifying the mass transition with [M+H]^+ as the precursor ion on API6500, triple quadruple mass spectrometer (Sciex, Framingham, MA). The relevant pharmacokinetic parameters were estimated using noncompartmental methods using WinNonlin (Enterprise, version 8.2).

human Factor B [3] = target: T1, human Factor B (Homo sapiens, UniProt P00751); assay: Target Residence Time of Factor B Inhibitors Determined by Surface Plasmon Resonance (SPR); type: binding; conditions: for Kd: immobilized recombinant human Factor B catalytic domain, room temperature; for t1/2 (binding half-life): t1/2=ln 2/kd; for residence time: tR=1/kd
T1 construct: Recombinant human Factor B catalytic domain (a.a. 470-764, C-terminal his-tagged, produced in-house); made in house
T1 sequence (P00751 470-764): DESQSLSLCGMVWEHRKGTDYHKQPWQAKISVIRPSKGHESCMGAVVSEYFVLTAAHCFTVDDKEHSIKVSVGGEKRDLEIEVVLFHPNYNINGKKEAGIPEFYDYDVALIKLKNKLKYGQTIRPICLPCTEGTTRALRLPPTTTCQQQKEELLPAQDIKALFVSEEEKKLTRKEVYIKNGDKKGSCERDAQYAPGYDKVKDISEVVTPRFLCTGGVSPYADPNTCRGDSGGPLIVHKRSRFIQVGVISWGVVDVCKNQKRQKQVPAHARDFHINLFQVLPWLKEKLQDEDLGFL
Text: • 1. Recombinant human Factor B catalytic domain (a. a. 470-764, C-terminal his-tagged, produced in-house) • 2. PBS-P+ Buffer 10× (Cytiva, CAT #28995084) • 3. Series S Sensor Chip NTA (Cytiva, CAT #BR100532) • 4. Amine Coupling Kit (Cytiva, CAT #BR100050) • 5. DMSO (Millipore Sigma, CAT #34869-1L) • 6. Greiner 96 well plates, polypropylene (Sigma-Aldrich, CAT #M7310-100EA) • 7. Microplate Foil, 96-well (Cytiva, CAT #28975816) • 8. Biacore 8k (Cytiva)
Biacore 8k instrument was primed using 1×PBS-P+ buffer before docking a Cytiva NTA chip. Recombinant human Factor B catalytic domain were immobilized on a NTA chip to a level of about 5000 resonance units (RU) using 1×PBS-P+ buffer [[…] phosphate buffer with 2.7 mM KCl, 137 mM NaCl, and 0.05% (v/v) Tween-20]. The protein ligand was further crosslinked to sensorchip surface by amine coupling kit. Immobilization and binding experiment were performed at room temperature.
After changing buffer to 1×PBS-P+ buffer with 2% (v/v) DMSO, a pre-run was performed for a period of at least 30 min at a flow rate of 30 μl/min to obtain a stable surface. The kinetic constants of the compounds were determined by single-cycle kinetics with six consecutive injections (or multi-cycle kinetics with eight consecutive injections) with an increasing compound concentration in ranges of 0.8-200 nM, 12.5-400 nM, 4.1-1,000 nM or 41-10,000 nM depending on the potency. Single-cycle kinetics experiments were performed with an association time of 60 s per concentration and a dissociation time of 300 s (or a dissociation time of 120 s for multi-cycle kinetics experiments). A flow rate of 30 μl/min was used. A blank run with the same conditions was performed before the compound was injected.
The SPR sensorgrams were analyzed with Biacore Insight Evaluation Software by using a method of double referencing. The resulting curve was fitted with a 1:1 binding model. The kinetic constants (ka, kd, KD) of replicates were averaged. Residence time (tR) was calculated from the dissociation constant kd with the formula tR=1/kd. Binding half-life (t1/2) was calculated from the dissociation constant kd with the formula t1/2=ln 2/kd

human Factor B [4] = target: T1, human Factor B; assay: Factor B Binding Assay by TR-FRET; conditions: recombinant human Factor B catalytic domain 10 nM, 100 nM tracer, 1 h
Procedure: • 1. Recombinant human Factor B catalytic domain (a.a. 470-764, C-terminal his-tagged, produced in-house) • 2. 5× Kinase Buffer A (Thermo Fisher, CAT #PV3189) • 3. LANCE Eu-W1024 Anti-6×His Antibody (PerkinElmer, CAT #AD0401) • 4. Probe (TRFRET_tool 2, reported in WO 2015/009616)
[drawing 252] • 5. DMSO (Thermo Fisher Scientific) • 6. Compounds-10 mM stock in DMSO • 7. Victor Nivo multimode plate reader (PerkinElmer) • 8. OptiPlate-384, white opaque 384-well microplate (PerkinElmer, CAT #6007290)
Factor B binding affinity of each compound tested was determined using a time-resolved fluorescence resonance energy transfer (TR-FRET) technology. 10 nM recombinant his-tagged Factor B catalytic domain, varying concentrations of inhibitors, 4 nM LANCE Eu-W1024 Anti-6×His Antibody and 100 nM TRFRET_tool2 tracer was incubated in 1× Kinase Buffer A for 1 h. Measurement was performed in a reaction volume of 15 μL by adding 5 μL of the test compound, 5 μL of Factor B/antibody mixture and 5 μL of tracer into white opaque 384-well assay plates. The TR-FRET signal was read on a plate reader with an excitation wavelength of 340 nm and detection wavelengths of 615 and 665 nm. Binding affinity was determined for each compound by measuring TR-FRET signal at various concentrations of compound and plotting the relative fluorescence Emission Ratio (665 nm/615 nm) against the inhibitor concentration to estimate the IC50 from [Compound] vs Emission Ratio using the four parameters dose-response inhibition curve with a variable slope model in GraphPad Prism.
The binding affinity to recombinant Factor B catalytic domain of the compounds of the present invention was determined by the above assay, and IC50 values (nM) are shown in the following table.

[5] = system: MAC (Membrane Attack Complex) formation; assay: Inhibition of Human MAC Deposition (AP deposition assay, LPS activation, ELISA of C5b-9); type: biochemical; conditions: human serum, LPS coated plates, GVB buffer with MgCl2 and EGTA, C5b-9 detection
Procedure: To quantify the inhibitory effects of compounds on complement protein deposition following LPS activation of the alternative complement pathway, the AP deposition assay was employed. Test concentration of the compounds started at 11.1 μM or 3.70 µM and were diluted 3-fold in DMSO to produce 8 concentration points, with each concentration tested in technical triplicates. Human serum was combined with test compounds in GVB buffer containing 5 mM MgCl2 10 mM EGTA, and was added to LPS coated black Maxisorp plates. After a period of incubation, the plate was inverted, and ELISA detection of complement proteins bound to LPS was performed. A primary antibody that detected human C5b-9 was used, followed by a compatible HRP conjugated secondary antibody. Peroxidase activity was detected using the Quantablu Fluorogenic Peroxidase substrate kit and fluorescence was measured at 340 nm/435 nm using the i3x plate reader to determine the quantity of alternative pathway complement protein deposition.

Row | bioavailability ([2]; 2 mg/kg, 0.5 mpk IV and 2 mpk PO) [%] | clearance ([2]; 0.5 mg/kg IV, read-out: 0.5 MPK IV arm CL) [L/h/kg] | half-life ([2]; 2 mg/kg PO, read-out: T½ (h) - 2 MPK PO (converted)) [h] | AUC(0-t) ([2]; 0.5 mpk IV and 2 mpk PO (arm not printed in this column head), read-out: Plasma AUC0-last) [µM·h] | Kd (human Factor B [3]) [µM] | t1/2 (binding half-life) (human Factor B [3]) [min] | residence time (human Factor B [3]) [min] | IC50 (human Factor B [4]) [µM] | IC50 [5] [µM] | SMILES | IC50 [1] [µM]
1 | 56 | 0.078 | 8.5 | 25.4 | 0.0009 | 11.8 | 16.9 | 0.00105 | 0.147 | COc1cc(C)c2[nH]ccc2c1CN1CCC2(CC(F)(F)C2)CC12CCc1cc(C(=O)O)ccc12 (single isomer, unassigned) [Example 1 isomer 1, 3,3-difluoro-1′-((5-methoxy-7-methyl-1H-indol-4-yl)methyl)-2″,3″-dihydrodispiro[cyclobutane-1,4′-piperidine-2′,1″-indene]-5″-carboxylic acid] | 0.22
2 | – | – | – | – | 0.0022 | 13.6 | 19.6 | 0.00201 | 0.129 | COc1cc(C)c2[nH]ccc2c1CN1CCC2(CC(F)(F)C2)C[C@]12CCCc1cc(C(=O)O)ccc12 (single isomer, unassigned) [Example 2 isomer 1] | 0.283
3 | – | – | – | – | 0.00173 | 12.6 | 18.2 | 0.00114 | 0.193 | COc1cc(C)c2[nH]ccc2c1CN1CCC2(CC(F)(F)C2)C[C@@]1(C)c1ccc(C(=O)O)cc1 (single isomer, unassigned) [Example 3 isomer 1] | 0.252
